From patent US10966426B2, “Herbicidal compositions comprising phenylpyrimidines” (BASF SE, priority 2016, dated 2021)

What was measured:
Type in all cases: in vivo
[1] = test system: Poa annua; experiment: greenhouse post-emergence treatment, POAAN; conditions: Poa annua, 480 h, read-out: % activity
Description: (§1) The culture containers used were plastic pots containing loamy sand with approximately 3.0% of humus as substrate. The seeds of the test plants were sown separately for each species.
(§2) For the post-emergence treatment, the test plants were grown to a plant height of from 3 to 15 cm, depending on the plant habit, and only then treated with the active compounds which had been suspended or emulsified in water. To this end, the test plants were either sown directly, and grown in the same containers, or they were first grown separately as seedlings and transplanted into the test containers a few days prior to treatment.
(§3) Depending on the species, the plants were kept at 10-25° C. and 20-35° C., respectively.
(§4) The test period extended over 2 to 4 weeks. During this time, the plants were tended and their response to the individual treatments was evaluated.
(§5) Evaluation was carried out using a scale from 0 to 100. 100 means no emergence of the plants, or complete destruction of at least the above-ground parts, and 0 means no damage or normal course of growth. A good herbicidal activity is given at values of at least 70, and very good herbicidal activity is given at values of at least 85.
(§6) The respective stated components A and B, and if appropriate, C were formulated as a 10% by weight strength emulsion concentrate and, with addition of the amount of solvent system, introduced into the spray liquor used for applying the active compound. In the examples, the solvent used was water.
(§7) In the examples below, using the method of S. R. Colby (1967) “Calculating synergistic and antagonistic responses of herbicide combinations”, Weeds 15, p. 22ff., the value E, which is expected if the activity of the individual active compounds is only additive, was calculated. E=X+Y−(X·Y/100) where X=effect in percent using herbicide A at an application rate a; • Y=effect in percent using herbicide B at application rate b; • E=expected effect (in %) of herbicide A+herbicide B at application rates a+b.

[2] = test system: Polygonum aviculare; experiment: greenhouse post-emergence treatment, POLAV; conditions: Polygonum aviculare, 480 h, 20 DAT, POLAV, Table X4, read-out: % activity, solo application
Description: as §1, §2, §3, §4, §5, §6, §7

[3] = test system: Matricaria chamomilla; experiment: greenhouse post-emergence treatment, MATCH; conditions: Matricaria chamomilla, 480 h, 31.25 gai/ha (EC 235 g/l), 20 DAT, MATCH, Table X4, read-out: % activity, solo application
How it was run: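 Seeds sown per species in pots of loamy sand; seedlings either grown in place or transplanted days before treatment. Post-emergence spray of water-based liquor at 3–15 cm height. Injury rated 0–100 over 2 to 4 weeks.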

[4] = test system: Galium aparine; experiment: greenhouse post-emergence treatment, GALAP; conditions: Galium aparine, 480 h
Description: as §1, §2, §3, §4, §5, §6, §7

[5] = test system: Setaria viridis; experiment: greenhouse post-emergence treatment, SETVI; conditions: Setaria viridis, 480 h, 20 DAT, SETVI, Table X4, read-out: % activity, solo application
How it was run: (§8)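 Scoring ran on a 0-100 scale, 100 meaning no emergence or destroyed above-ground parts, over a 2-4 week period; Colby formula E=X+Y−(X·Y/100) gave expected mixture effects. Species grew separately in loamy sand (about 3.0% humus) at 10-25° C or 20-35° C, with water as solvent.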

[6] = test system: Apera spica-venti; experiment: greenhouse post-emergence treatment, APESV; conditions: APESV, bromoxynil solo 250 gai/ha, 20 DAT
Description: as §1, §2, §3, §4, §5, §6, §7

[7] = test system: Digitaria sanguinalis; experiment: greenhouse post-emergence treatment, DIGSA; conditions: Digitaria sanguinalis, 480 h
How it was run: as §8

[8] = test system: Stellaria media; experiment: greenhouse post-emergence treatment, STEME; conditions: Stellaria media, 480 h, read-out: % activity
Description: as §1, §2, §3, §4, §5, §6, §7

[9] = test system: Bromus sterilis; experiment: greenhouse post-emergence treatment, BROST; conditions: Bromus sterilis, 480 h, read-out: % activity
How it was run: as §8

[10] = test system: Papaver rhoeas; experiment: greenhouse post-emergence treatment, PAPRH; conditions: Papaver rhoeas, 480 h, 31.25 gai/ha (EC 235 g/l), 20 DAT, PAPRH, Table X4, read-out: % activity, solo application
Description: as §1, §2, §3, §4, §5, §6, §7

[11] = test system: Alopecurus myosuroides; experiment: greenhouse post-emergence treatment, ALOMY; conditions: Alopecurus myosuroides, 480 h, read-out: % activity
Description: as §1
To this end, the test plants were either sown directly, and grown in the same containers, or they were first grown separately as seedlings and transplanted into the test containers a few days prior to treatment.
as §3, §4, §5
In the examples, the solvent used was water.
In the examples below, using the method of S. R. Colby (1967) “Calculating synergistic and antagonistic responses of herbicide combinations”, Weeds 15, p. […] E=X+Y−(X·Y/100) where X=effect in percent using herbicide A at an application rate a; • Y=effect in percent using herbicide B at application rate b; • E=expected effect (in %) of herbicide A+herbicide B at application rates a+b.

[12] = test system: Avena fatua; experiment: greenhouse post-emergence treatment, AVEFA; conditions: Avena fatua, 480 h, 20 DAT, AVEFA, Table X4, read-out: % activity, solo application
How it was run: as §8

[13] = test system: Lolium multiflorum; experiment: greenhouse post-emergence treatment, LOLMU; conditions: Lolium multiflorum, 480 h
How it was run: as §8

[14] = test system: Brachiaria decumbens; experiment: greenhouse post-emergence treatment, BRADC; conditions: Urochloa decumbens, 480 h, read-out: % activity
How it was run: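 Post-emergence greenhouse spray on 3–15 cm plants, sown direct or transplanted a few days before treatment. Scored visually on a 0–100 scale after 2 to 4 weeks; expected additive effect computed by Colby: E=X+Y−(X·Y/100).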

Compound `N#Cc1cc(Br)c(O)c(Br)c1` [Bromoxynil, bromoxynil] has a pest or weed control at 31.25 g/ha [1] of 0%, a pest or weed control at 62.5 g/ha [1] of 0% and a pest or weed control at 125 g/ha [1] of 0%. It also gave a pest or weed control at 250 g/ha [1] of 0%, an inhibition at 31.25 g/ha ([2]; 31.25 gai/ha (EC 235 g/l)) of 65% and an inhibition at 62.5 g/ha ([2]; 62.5 gai/ha (EC 235 g/l)) of 65%. For the same compound, the inhibition at 125 g/ha ([2]; 125 gai/ha (EC 235 g/l)) was 65%, the inhibition at 31.25 g/ha [3] was 55% and the inhibition at 62.5 g/ha ([4]; 62.5 gai/ha (EC 235 g/l), 20 DAT, GALAP, Table X4, read-out: % activity, solo application) was 65%. It also gave an inhibition at 125 g/ha ([4]; 125 gai/ha (EC 235 g/l), 20 DAT, GALAP, Table X4, read-out: % activity, solo application) of 80%, a pest or weed control at 31.25 g/ha ([4]; read-out: % activity) of 65% and a pest or weed control at 62.5 g/ha ([4]; read-out: % activity) of 65%. For the same compound, the pest or weed control at 125 g/ha ([4]; read-out: % activity) was 80%, the inhibition at 31.25 g/ha ([5]; 31.25 gai/ha (EC 235 g/l)) was 0% and the inhibition at 250 g/ha ([5]; 250 gai/ha (EC 235 g/l)) was 0%. The “% activity” value [6] was 0%, the inhibition at 31.25 g/ha ([7]; 31.25 gai/ha (EC 235 g/l), 20 DAT, DIGSA, Table X4, read-out: % activity, solo application) was 0% and the inhibition at 62.5 g/ha ([7]; 62.5 gai/ha (EC 235 g/l), 20 DAT, DIGSA, Table X4, read-out: % activity, solo application) was 0%. The inhibition at 125 g/ha ([7]; 125 gai/ha (EC 235 g/l), 20 DAT, DIGSA, Table X4, read-out: % activity, solo application) was 0%, the inhibition at 250 g/ha ([7]; 250 gai/ha (EC 235 g/l), 20 DAT, DIGSA, Table X4, read-out: % activity, solo application) was 0% and the pest or weed control at 31.25 g/ha ([7]; read-out: % activity) was 0%. For the same compound, the pest or weed control at 62.5 g/ha ([7]; read-out: % activity) was 0%, the pest or weed control at 125 g/ha ([7]; read-out: % activity) was 0% and the pest or weed control at 250 g/ha ([7]; read-out: % activity) was 0%. It also gave a pest or weed control at 31.25 g/ha [8] of 30%, a pest or weed control at 62.5 g/ha [8] of 50% and a pest or weed control at 125 g/ha [8] of 60%. The pest or weed control at 31.25 g/ha [9] was 0%, the pest or weed control at 62.5 g/ha [9] was 0% and the pest or weed control at 125 g/ha [9] was 0%. It also gave a pest or weed control at 250 g/ha [9] of 0%, an inhibition at 31.25 g/ha [10] of 40% and a pest or weed control at 31.25 g/ha [11] of 0%. It also gave a pest or weed control at 62.5 g/ha [11] of 0%, a pest or weed control at 125 g/ha [11] of 0% and a pest or weed control at 250 g/ha [11] of 10%. For the same compound, the inhibition at 31.25 g/ha ([12]; 31.25 gai/ha (EC 235 g/l)) was 0%, the inhibition at 125 g/ha ([12]; 125 gai/ha (EC 235 g/l)) was 0% and the inhibition at 31.25 g/ha ([13]; 31.25 gai/ha (EC 235 g/l), 20 DAT, LOLMU, Table X4, read-out: % activity, solo application) was 0%. The inhibition at 62.5 g/ha ([13]; 62.5 gai/ha (EC 235 g/l), 20 DAT, LOLMU, Table X4, read-out: % activity, solo application) was 0%, the inhibition at 125 g/ha ([13]; 125 gai/ha (EC 235 g/l), 20 DAT, LOLMU, Table X4, read-out: % activity, solo application) was 0% and the inhibition at 250 g/ha ([13]; 250 gai/ha (EC 235 g/l), 20 DAT, LOLMU, Table X4, read-out: % activity, solo application) was 0%. It also gave a pest or weed control at 31.25 g/ha ([13]; read-out: % activity) of 0%, a pest or weed control at 62.5 g/ha ([13]; read-out: % activity) of 0% and a pest or weed control at 125 g/ha ([13]; read-out: % activity) of 0%. It also gave a pest or weed control at 250 g/ha ([13]; read-out: % activity) of 0%, a pest or weed control at 31.25 g/ha [14] of 0% and a pest or weed control at 62.5 g/ha [14] of 0%. It also gave a pest or weed control at 125 g/ha [14] of 10%.
